One data set concerns HT-29. Kind of data set: cells. Type of data set: cell-based, human. As to conditions: for viability at 100 µM: Homo sapiens, HT-29, read-out: Cell viability percentage at 100 μM HT-29. Here is the method: (§1) Antitumoral activity of the compounds of the present invention was evaluated by determining in vitro cell growth inhibition of 2 human colon adenocarcinome cell lines. The SBR (Sulphorhodamine B) protein dye assay described by the NCI (National Cancer Institute) was used. Results of Table 2 illustrate the antiproliferative activity of some of the compounds of the present invention versus the one obtained with exisulind (sulindac sulfone).

The next data set relates to HCT-116. The experiment in a line: cells. Type of data set: cell-based, human. Conditions: for viability at 100 µM: Homo sapiens, HCT-116, read-out: Cell viability percentage at 100 μM HCT-116. The method, then:
as §1

The test system of data set [1] is Staphylococcus aureus (BCM-012). Kind of data set: MIC by microdilution in microtiter plate, BCM-012. Type of data set: cell-based. Conditions: incubation 24 h at 35° C. The method, then:
(§2) In order to assess the antimicrobial activity of the compounds of the present invention a method of microdilution in microtiter plate was used. The compounds were diluted in a nutritious medium and, subsequently, distributed by two-fold serial dilutions in 96 well plates. Then, plates were inoculated with a bacterial suspension. After incubation for 24 h at 35° C. the minimum inhibitory concentration (MIC) of the drug in […] was determined as the lowest concentration of compound which inhibits the growth of the bacterium. Results included in Table 1 illustrate the antimicrobial activity of some of the compounds of the present invention in comparison with thus obtained with two compounds (linezolid and eperezolid) of a known antimicrobial activity. The antimicrobial activity of the compound versus Streptococcus faecalis (BCM-010, strain designation as for SALVAT collection) Staphylococcus aureus (BCM-012, strain designation as for SALVAT collection) and Moraxella catarrhalis (BCM-015, strain designation as for SALVAT collection), respectively, is shown in the different columns.
Background: Broth dilution looks for growth in wells or tubes with falling amounts of substance.

The test system of data set [2] is Streptococcus faecalis (BCM-010). The experiment in a line: MIC by microdilution in microtiter plate, BCM-010. Type of data set: cell-based. As to conditions: Enterococcus faecalis, incubation 24 h at 35° C. The method, then:
as §2

Data set [3] has as its system Moraxella catarrhalis (BCM-015). The experiment in a line: MIC by microdilution in microtiter plate, BCM-015. Type of data set: cell-based. Conditions: incubation 24 h at 35° C. The method, then: as §2

By viability is commonly meant a read-out of living cells in per cent, often relative to untreated cells. In general, MIC refers to the smallest concentration in the dilution series that meets the test's criterion for growth inhibition. Higher therefore signals weaker potency.

Values after ≈ are worked out from the molar mass of the structure shown.

`OCc1cn(-c2ccc(-c3cc(CNc4ccon4)on3)cc2F)cn1` [Example 4]: the viability at 100 µM in the data set with HT-29 worked out at 66.1%; in the data set on HCT-116, 57.1%. For the same molecule, the MIC in data set [1] turned out to be 2 µg/mL (≈ 5.63 µM); in data set [2], 4 µg/mL (≈ 11.3 µM).

Regarding `N#C/C=C/c1cn(-c2ccc(-c3cc(CNc4ccon4)on3)cc2F)cn1` [Example 28], the results for the viability at 100 µM with HT-29 and with HCT-116 were 71.2% and 64.7%, respectively. Moreover, the MIC in data set [1] came to 0.5 µg/mL (≈ 1.33 µM); in data set [3] it was 4 µg/mL (≈ 10.6 µM); in data set [2], 1 µg/mL (≈ 2.66 µM).

As to `Cc1cn(-c2ccc(-c3cc(CNc4cc(C)ns4)on3)cc2F)cn1` [Example 34, {3-[3-fluoro-4-(4-methylimidazolyl)phenyl]isoxazol-5-ylmethyl}-(3-methyl-isothiazol-5-yl)amine], the MIC in data set [1] was determined as 1 µg/mL (≈ 2.71 µM); in data set [3] it was 4 µg/mL (≈ 10.8 µM); in data set [2], 1 µg/mL (≈ 2.71 µM).

As to `N#C/C=C/c1ccn(-c2ccc(-c3cc(CNc4ccon4)on3)cc2F)c1` [Example 36], the viability at 100 µM with HT-29 turned out to be 14.3%; in the data set with HCT-116, 77.1%.

Turning to `Cc1cc(NCc2cc(-c3ccc(-n4ccc(/C=C/C#N)c4)c(F)c3)no2)sn1` [Example 37], the viability at 100 µM in the data set with HT-29 was less than 5%; with HCT-116 it was 18.9%.

Take `Cc1cn(-c2ccc(-c3cc(CNc4ccon4)on3)cc2F)cn1` [Example 38]: the viability at 100 µM is 53.3% in the data set with HT-29 and 48.6% in the data set on HCT-116.

With `CC(=O)NC[C@H]1CN(c2ccc(N3CCOCC3)c(F)c2)C(=O)O1` [Linezolid, linezolid, reference compound], the MIC is 2 µg/mL (≈ 5.93 µM) in data set [1], 4 µg/mL (≈ 11.9 µM) in data set [3] and 4 µg/mL (≈ 11.9 µM) in data set [2].

For “sulindac sulfone [Exisulind, reference compound]”, the “Cell viability percentage at 100 μM HT-29” value in the data set on HT-29 is listed as 38.1%. Also, in the data set on HCT-116, the “Cell viability percentage at 100 μM HCT-116” value is on record as 44.1%.
